# Measured values from BindingDB's records for doi:10.1021/jm00051a006 (University of Alberta, 1995).
# Assay: Effective concentration in vitro against HIV-1-infected CEM cells relative to uninfected untreated controls
row,SMILES,EC50 [nM]
1,CC1(Br)C(=O)NC(=O)N([C@H]2C[C@H](N=[N+]=[N-])[C@@H](CO)O2)C1N=[N+]=[N-] (stereo partly specified),200000
2,CCCCCCCCO[C@H]1N(C2CC(N=[N+]=[N-])C(CO)O2)C(=O)NC(=O)[C@]1(C)Br (stereo partly specified),865
3,CO[C@H]1N([C@H]2C[C@H](N=[N+]=[N-])[C@@H](CO)O2)C(=O)NC(=O)C1(C)Cl (stereo partly specified),5790
4,CO[C@H]1N(C2CC(N=[N+]=[N-])C(CO)O2)C(=O)NC(=O)[C@]1(C)Br (stereo partly specified),3.27
5,CC(C)O[C@H]1N(C2CC(N=[N+]=[N-])C(CO)O2)C(=O)NC(=O)[C@]1(C)Br (stereo partly specified),5720

# More lines, now with the values ahead:
row,EC50 [nM],SMILES
1,280,CO[C@@H]1N(C2CC(N=[N+]=[N-])C(CO)O2)C(=O)NC(=O)[C@@]1(C)Br (stereo partly specified)
2,1490,CC1(Cl)C(=O)NC(=O)N([C@H]2C[C@H](N=[N+]=[N-])[C@@H](CO)O2)C1N=[N+]=[N-] (stereo partly specified)
3,5.15,CO[C@@H]1N(C2CC(N=[N+]=[N-])C(CO)O2)C(=O)NC(=O)[C@@]1(C)I (stereo partly specified)
4,6.75,CCO[C@H]1N(C2CC(N=[N+]=[N-])C(CO)O2)C(=O)NC(=O)[C@]1(C)Br (stereo partly specified)
5,23.7,CCO[C@@H]1N(C2CC(N=[N+]=[N-])C(CO)O2)C(=O)NC(=O)[C@@]1(C)Br (stereo partly specified)
6,3.17,CO[C@H]1N(C2CC(N=[N+]=[N-])C(CO)O2)C(=O)NC(=O)[C@]1(C)I (stereo partly specified)
